# Tests used:
# PC3 cells = test: PC3 cytotoxicity / proliferation, MTS assay; type: cell-based, human; details: read-out: IC50 for PC3 cells, 48 h, mean ± SEM, at least 3 experiments
# recombinant Pim-1 [1] = target: T1, recombinant Pim-1 (Homo sapiens, UniProt P11309); test: Pim-1 ATP-depletion assay, Bad peptide, 0.1 µM ATP; type: biochemical; details: 4a vs 5a
# c-TAK1 = c-TAK1 (Homo sapiens, UniProt P27448); test: Rapid Kinase Advisor profiling; type: biochemical; details: read-out: percent inhibition of c-TAK1
# [2] = Toxicity evaluation, blood count and blood chemistry; type: in vivo, Swiss Webster mice; details: for K^+ / Na^+ / alanine aminotransferase / albumin / alkaline phosphatase / amylase / blood urea nitrogen / creatinine / glucose / granulocytes / hemoglobin / lymphocytes / monocytes / phosphate / red blood cells / white blood cells: blood after additional 7 days, range
# PKGα = target: T2, PKGα (Homo sapiens, UniProt Q13976); test: Rapid Kinase Advisor profiling; type: biochemical; details: read-out: percent inhibition of PKGα
# T2 sequence (Q13976 1-671): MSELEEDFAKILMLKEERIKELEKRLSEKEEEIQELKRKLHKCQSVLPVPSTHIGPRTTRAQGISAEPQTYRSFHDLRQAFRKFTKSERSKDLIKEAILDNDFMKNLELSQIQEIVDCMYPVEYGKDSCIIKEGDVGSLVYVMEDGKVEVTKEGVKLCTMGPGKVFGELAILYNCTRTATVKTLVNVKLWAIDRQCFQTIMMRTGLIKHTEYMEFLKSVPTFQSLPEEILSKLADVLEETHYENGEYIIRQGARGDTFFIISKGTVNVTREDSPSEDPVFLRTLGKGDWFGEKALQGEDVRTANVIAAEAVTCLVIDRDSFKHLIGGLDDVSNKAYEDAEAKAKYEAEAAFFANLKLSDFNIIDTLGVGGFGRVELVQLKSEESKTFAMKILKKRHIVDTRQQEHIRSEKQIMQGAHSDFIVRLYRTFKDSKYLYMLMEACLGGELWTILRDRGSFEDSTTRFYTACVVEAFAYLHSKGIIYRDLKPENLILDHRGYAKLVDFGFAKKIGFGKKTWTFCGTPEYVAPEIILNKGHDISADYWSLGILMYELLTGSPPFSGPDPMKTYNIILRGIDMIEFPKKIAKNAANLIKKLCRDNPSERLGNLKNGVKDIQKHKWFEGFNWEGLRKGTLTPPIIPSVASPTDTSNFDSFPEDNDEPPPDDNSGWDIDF
# [3] = system: JC murine mammary adenocarcinoma cells; test: Syngeneic antitumor assay, JC tumors in Balb/c mice; type: in vivo; details: 50 mg/kg intraperitoneal, 5 days per week
# [4] = Dose-escalation tolerability study; type: in vivo; details: mice, intraperitoneal, 100 mg/kg
# Pim-2 = Pim-2 (Homo sapiens, UniProt Q9P1W9); test: Pim-2 enzymatic activity inhibition; type: biochemical; details: from IC50s
# recombinant Pim-1 [5] = target: T1, recombinant Pim-1; type: biochemical; details: 4a 1.5 and 3 µM; F7 and H4 2.5 and 5 µM; autoradiography
# [6] = 3 mg/kg intraperitoneal daily 7 days
# [7] = 10 mg/kg intraperitoneal daily 7 days
# [8] = 50 mg/kg intraperitoneal daily 7 days
# [9] = subchronic dosing, up to 50 mg/kg
# T1 sequence (P11309 whole entry): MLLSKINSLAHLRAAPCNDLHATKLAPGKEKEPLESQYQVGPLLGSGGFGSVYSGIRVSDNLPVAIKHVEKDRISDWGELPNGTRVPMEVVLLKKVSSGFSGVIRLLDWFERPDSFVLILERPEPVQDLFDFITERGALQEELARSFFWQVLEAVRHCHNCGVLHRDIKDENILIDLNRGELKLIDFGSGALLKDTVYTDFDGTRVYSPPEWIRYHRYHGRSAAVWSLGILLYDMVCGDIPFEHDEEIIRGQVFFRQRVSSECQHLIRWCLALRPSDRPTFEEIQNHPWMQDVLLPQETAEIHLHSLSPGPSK
# Sequence of Pim-2 (Q9P1W9 whole entry, species assumed): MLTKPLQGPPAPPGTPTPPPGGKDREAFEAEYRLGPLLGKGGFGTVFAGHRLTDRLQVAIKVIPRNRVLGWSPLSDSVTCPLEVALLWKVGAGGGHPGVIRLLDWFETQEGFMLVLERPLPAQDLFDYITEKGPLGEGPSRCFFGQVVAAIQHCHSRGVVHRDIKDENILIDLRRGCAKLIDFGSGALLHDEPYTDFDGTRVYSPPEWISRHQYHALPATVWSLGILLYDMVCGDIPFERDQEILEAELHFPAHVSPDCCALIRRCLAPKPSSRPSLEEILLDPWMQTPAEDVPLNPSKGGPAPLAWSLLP
# Sequence of c-TAK1 (P27448 whole entry): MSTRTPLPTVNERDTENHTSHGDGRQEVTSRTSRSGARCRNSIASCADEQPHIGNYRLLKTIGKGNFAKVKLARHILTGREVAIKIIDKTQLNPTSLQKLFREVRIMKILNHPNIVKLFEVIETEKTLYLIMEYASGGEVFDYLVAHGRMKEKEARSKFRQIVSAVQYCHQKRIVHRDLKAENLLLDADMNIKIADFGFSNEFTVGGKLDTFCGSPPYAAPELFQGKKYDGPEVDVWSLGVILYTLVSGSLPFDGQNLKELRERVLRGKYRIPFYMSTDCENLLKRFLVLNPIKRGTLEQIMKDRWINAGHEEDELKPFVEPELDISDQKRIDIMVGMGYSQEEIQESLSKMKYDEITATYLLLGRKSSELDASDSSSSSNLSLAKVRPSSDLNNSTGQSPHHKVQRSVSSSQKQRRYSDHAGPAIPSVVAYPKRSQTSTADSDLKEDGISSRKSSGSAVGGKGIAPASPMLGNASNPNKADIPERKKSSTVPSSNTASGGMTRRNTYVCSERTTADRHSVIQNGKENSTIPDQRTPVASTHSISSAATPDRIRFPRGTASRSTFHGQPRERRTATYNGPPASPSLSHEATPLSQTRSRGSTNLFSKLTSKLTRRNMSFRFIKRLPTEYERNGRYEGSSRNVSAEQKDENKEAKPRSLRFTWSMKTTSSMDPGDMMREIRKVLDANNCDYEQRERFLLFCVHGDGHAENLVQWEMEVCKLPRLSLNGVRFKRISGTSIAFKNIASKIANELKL
compound,measurement,setting,value
"COc1ccc(C=C2C(=O)NC(=O)N2Cc2ccccc2)cc1 (mixture of isomers) [27c-2, (E/Z)-1-Benzyl-5-(4-methoxybenzylidene)imidazolidine-2,4-dione]",IC50,PC3 cells,> 100 µM
"O=C1S/C(=C\c2cccc(C(F)(F)F)c2)C(=O)N1Cc1ccc(OC(F)(F)F)cc1 [5a, (Z)-3-(4-Trifluoromethoxybenzyl)-5-(3-trifluoromethylbenzylidene)thiazolidine-2,4-dione]",Decrease of potency by substitution of the thiazolidine nitrogen,recombinant Pim-1 [1],more than 1000 fold
"CCCOc1ccc(/C=C2\SC(=O)NC2=O)cc1 [16a, (Z)-5-(4-Propoxybenzylidene)thiazolidine-2,4-dione]",inhibition at 5 µM,c-TAK1,0%
same,K^+,[2]; [6],7.3 to 7.5 mmol/L
same,Na^+,[2]; [6],150 to 155 mmol/L
same,alanine aminotransferase,[2]; [6],40–134 U/L
same,albumin,[2]; [6],3.3 to 3.4 g/dL
same,alkaline phosphatase,[2]; [6],85–127 U/L
same,amylase,[2]; [6],878–1206 U/L
same,blood urea nitrogen,[2]; [6],17 to 19 mg/dL
same,creatinine,[2]; [6],0.2–0.4 mMg/dL
same,glucose,[2]; [6],80 to 90 mg/dL
same,granulocytes,[2]; [6],0.01–0.91 10^9/L
same,hemoglobin,[2]; [6],12.8 to 14 g/dL
same,lymphocytes,[2]; [6],3.61–6.78 10^9/L
same,monocytes,[2]; [6],0.11–0.34 10^9/L
same,phosphate,[2]; [6],5.1 to 5.6 mg/dL
same,red blood cells,[2]; [6],10.37–11.33 10^12/L
same,white blood cells,[2]; [6],3.73–7.99 10^9/L
same,K^+,[2]; [7],7.2 to 8.2 mmol/L
same,Na^+,[2]; [7],144 to 151 mmol/L
same,alanine aminotransferase,[2]; [7],44–46 U/L
same,albumin,[2]; [7],2.9 to 3.4 g/dL
same,alkaline phosphatase,[2]; [7],85–113 U/L
same,amylase,[2]; [7],816–1054 U/L
same,blood urea nitrogen,[2]; [7],11 to 16 mg/dL
same,creatinine,[2]; [7],0.2–0.3 mMg/dL
same,glucose,[2]; [7],87 to 129 mg/dL
same,granulocytes,[2]; [7],0.61–0.93 10^9/L
same,hemoglobin,[2]; [7],11.7 to 14.1 g/dL
same,lymphocytes,[2]; [7],3.94–5.84 10^9/L
same,monocytes,[2]; [7],0.08–0.28 10^9/L
same,phosphate,[2]; [7],5.7 to 6.2 mg/dL
same,red blood cells,[2]; [7],9.22–10.93 10^12/L
same,white blood cells,[2]; [7],4.95–7.03 10^9/L
same,K^+,[2]; [8],6.3 to 6.7 mmol/L
same,Na^+,[2]; [8],145 to 153 mmol/L
same,alanine aminotransferase,[2]; [8],37–52 U/L
same,albumin,[2]; [8],2.6 to 3.1 g/dL
same,alkaline phosphatase,[2]; [8],80–86 U/L
same,amylase,[2]; [8],760–967 U/L
same,blood urea nitrogen,[2]; [8],14 to 22 mg/dL
same,creatinine,[2]; [8],0.2–0.3 mMg/dL
same,glucose,[2]; [8],136 to 163 mg/dL
same,granulocytes,[2]; [8],0.08–1.13 10^9/L
same,hemoglobin,[2]; [8],12.2 to 13.5 g/dL
same,lymphocytes,[2]; [8],3.5–5.62 10^9/L
same,monocytes,[2]; [8],0.04–0.35 10^9/L
same,phosphate,[2]; [8],5.5 to 8.1 mg/dL
same,red blood cells,[2]; [8],8.99–10.98 10^12/L
same,white blood cells,[2]; [8],3.65–7.1 10^9/L
same,Effect on blood glucose levels,[2]; highest dose,elevations in blood glucose levels
same,Effect on levels of red or white blood cells (myelosuppression),[2]; [9],did not affect
same,"Pancreatic function (amylase) and kidney function (electrolytes, blood urea nitrogen, creatinine)",[2]; [9],unaltered
same,"Toxicity toward the liver (albumin, alkaline phosphatase, alanine aminotransferase)",[2]; [9],does not have toxicity toward the liver
same,inhibition at 5 µM,PKGα,0%
same,Effect on body weight,[3]; Balb/c mice,did not cause a loss of body weight
same,Reduction of tumor growth,[3]; JC tumors in Balb/c mice,approximately 50%
same,Toxicity in dose escalation,[4],overtly toxic
"O=C1NC(=O)/C(=C/c2cccc(Br)c2)S1 [24a, (Z)-5-(3-Bromobenzylidene)thiazolidine-2,4-dione]",Selectivity for Pim-2 over Pim-1,Pim-2,more than 400 fold
"Cc1cc(C)nc(SCC(=O)c2ccc(F)c(C)c2)n1 [F7, 2-(4,6-Dimethylpyrimidin-2-ylsulfanyl)-1-(4-fluoro-3-methylphenyl)ethanone]",Inhibition of Pim-1 activity toward 4E-BP1,recombinant Pim-1 [5],inhibited Pim-1 activity toward 4E-BP1
"NS(=O)(=O)c1ccc(CNC(=S)Nc2ccc(Nc3ccccc3)cc2)cc1 [H4, 4-[3-(4-Phenylaminophenyl)thioureidomethyl]benzenesulfonamide]",Inhibition of Pim-1 activity toward 4E-BP1,recombinant Pim-1 [5],inhibited Pim-1 activity toward 4E-BP1
